Experimental data from patent publication US20040253308A1, “Surface-treated modafinil particles” (Barr Laboratories, Inc., priority 2003, published 2004).

Key:
[1] = Particle size determination (Hiac/Royco system); format: physicochemical; conditions: production lot used for FIG. 1 tablets
Description: Particle size can be determined by various methods known to those in the art, such as, but not limited to, laser particle size detectors. Particle size, as defined herein, is determined using a Hiac/Royco system, which includes the Model 9064 particle counter and the Model 3000A liquid syringe sampler (11801 Tech Road, Silver Spring, Md. 20904, U.S.A.).
Particle size was determined using a Hiac/Royco system, which includes the Model 9064 particle counter and the Model 3000A liquid syringe sampler (11801 Tech Road, Silver Spring, Md. 20904, U.S.A.). Samples were prepared in water saturated with modafinil. For each sample preparation, five consecutive readings were measured. The test was done in triplicate and the average was reported.

[2] = test system: mice; conditions: single administration (Duteil et al.); cited from earlier work
[3] = test system: monkeys; conditions: single administration (Duteil et al.); cited from earlier work

For `NC(=O)C[S+]([O-])C(c1ccccc1)c1ccccc1` (stereo not shown) [modafinil, 2-(benzhydrylsulfinyl)acetamide], the median particle size ([1]; pretreated modafinil particles) is given as 148 μm, the “diameter exceeded by 5% of the total of pretreated modafinil particles” value [1] is given as 277 μm and the locomotor activity [2] is given as “increased locomotor activity”. For the same compound, the nocturnal activity [3] was “increased nocturnal activity”.
